The test system of one series is THP-1 cells. The experiment in a line: cells. The following applies: Homo sapiens, THP-1, 144 h, read-out: IC50 THP1.
Series [1] relates to bloodstream form T. brucei. The experiment in a line: microbe, parasite or virus in culture. The class given is cell-based. The note with it: Trypanosoma brucei.
The subject of the next series is Vero cells. The experiment in a line: cells. It is filed as cell-based. The note with it: Chlorocebus sabaeus, read-out: IC50 Vero cells.
In series [2] the test system is insect form Leishmania major. The experiment in a line: microbe, parasite or virus in culture. The class given is cell-based. The note with it: 144 h, read-out: IC50 L. major.
For series [3], the system named is intracellular form T. cruzi. The experiment in a line: microbe, parasite or virus in culture. The class given is cell-based. The note with it: Trypanosoma cruzi, Vero, 72 h, read-out: IC50 T. cruzi.
Series [4] is described as follows: Stability in phosphate buffer (HPLC). The class given is physicochemical. The note with it: pH 7.4, 100 mM phosphate buffer, three-day incubation at 37° C., 100 μM. Here is the method: (§1) Select nitrobenzyl phosphoramide mustards (100 μM) were incubated in pH 7.4 100 mM phosphate buffer or in whole human blood at 37° C. Aliquots were withdrawn at different time intervals and mixed with acetonitrile (1-1 for phosphate buffer and 1-5 for whole blood). The samples were centrifuged and analyzed by HPLC.

Series [5] is described as follows: Stability in whole human blood (HPLC). It is filed as in vitro ADME. The following applies: three-day incubation at 37° C., 100 μM. Here is the method: as §1
Substrate in series [6]: CC1CS(=O)(=O)CCN1/N=C/c1ccc([N+](=O)[O-])o1
Kind of series: TbNTR enzyme activity by NADH oxidation (absorbance at 340 nm). The class given is biochemical, T. brucei. The following applies: other: apparent; NADH 100 μM, substrate 2-75 μM.

[7] abbreviates: 72 h, read-out: IC50 T. bruccei.
Setting [8] is: read-out: IC50 against bloodstream form T. brucei.

Where two headings read alike, the source gives them in different places.

Consider `NP(=O)(OCc1ccc([N+](=O)[O-])cc1)N(CCCl)CCCl` (centres unmarked) [LH7], for which the IC50 was 66 ± 0.8 µM in the series on THP-1 cells and 3.4 ± 0.3 µM in series [1] (setting [7]).

As for `NP(=O)(OCc1ccc([N+](=O)[O-])cc1F)N(CCCl)CCCl` (centres unmarked) [LH32, 2-Fluoro-4-nitrobenzyl phosphoramide mustard], the half-maximal inhibitory concentration (IC50) is over 100 µM in the series on Vero cells; 4.72 ± 0.23 µM in series [2]; 20.3 ± 1.8 µM with THP-1 cells; 0.268 ± 0.008 µM in series [1] (setting [7]); 0.268 ± 0.008 µM in series [1] (setting [8]); 9.54 ± 0.27 µM in series [3].

`NP(=O)(OCc1ccc([N+](=O)[O-])cc1C(F)(F)F)N(CCCl)CCCl` (centres unmarked) [LH33, 2-Trifluoromethyl-4-nitrobenzyl phosphoramide mustard]: the concentration for half-maximal inhibition (IC50) with Vero cells was over 100 µM; in series [2], 5.88 ± 0.28 µM; in the series on THP-1 cells it was 19 ± 1.9 µM; in series [1] (setting [7]), 0.149 ± 0.02 µM; in series [1] (setting [8]) it was 0.149 ± 0.02 µM; in series [3], 7.97 ± 1.13 µM.

Consider `NP(=O)(OCc1ccc([N+](=O)[O-])cc1Cl)N(CCCl)CCCl` (centres unmarked) [LH34, 2-Chloro-4-nitrobenzyl phosphoramide mustard], for which the half-inhibitory concentration (IC50) was over 100 µM in the series on Vero cells; 3.1 ± 0.28 µM in series [2]; 10 ± 1.2 µM with THP-1 cells; 0.008 ± 0.001 µM in series [1] (setting [7]); under 0.01 µM in series [1] (setting [8]); 9.14 ± 0.54 µM in series [3]. Moreover, in series [4], the “Stability in phosphate buffer” value is “stable”. The “change in peak area in whole human blood” value in series [5] is “less than 30%”.

For `NP(=O)(OCc1c(F)cc([N+](=O)[O-])cc1F)N(CCCl)CCCl` (centres unmarked) [LH37, 2,6-Difluoro-4-nitrobenzyl phosphoramide mustard], the concentration for half-maximal inhibition (IC50) in the series with Vero cells was over 100 µM; in series [2], 1.29 ± 0.08 µM; in the series with THP-1 cells it was 6.9 µM; in series [1] (setting [7]), 0.007 µM; in series [1] (setting [8]) it was under 0.01 µM; in series [3], 0.99 ± 0.01 µM. For the same molecule, the “Stability in phosphate buffer” value in series [4] is given as “completely stable”. Moreover, in series [5], the “Stability in human whole blood” value was “completely stable”.

With `CC1CS(=O)(=O)CCN1/N=C/c1ccc([N+](=O)[O-])o1` (centres unmarked) [Nifurtimox, reference compound], the concentration for half-maximal inhibition (IC50) with THP-1 cells came to 64.8 ± 1.5 µM.

Consider `Nc1nc(N)nc(Nc2ccc([As]3SCC(CO)S3)cc2)n1` (centres unmarked) [melarsoprol, reference compound], for which the IC50 in series [1] (read-out: drug sensitivity (IC50)) is about 4 µM.

B1: T. brucei NTR (TbNTR) (Trypanosoma brucei brucei TREU927) (protein)
chain: DAFIRVVERRHSSKRFDSSRPVDHTLIARLLEATTRAPTAFNLQPWVAIVVHETSQRGALSHAALDQPQPREAPVTVVFAGDMEPEWRAPAALELGLNSGYYHPLYGAAYLRLVYYHLHGGPFGSMAKAKSCISSWYSNATGTPLLSVPTTMQGYAWKQAMIPATTFIYAATAAGLDTAILEGFDEAKVREVVGLPERYTVPVIISVGYKKADEQGKPPVRSPRFSTGSLVRWNRF
For B1, in series [6], the Michaelis-Menten constant (Km) came out at 53.1 ± 15.2 µM, the Vmax amounted to 0.423 µmol/min/mg and the kcat/Km was 3400 M⁻¹ s⁻¹.

What is called IC50 is the point on the concentration scale where inhibition reaches its midpoint. As a reminder, the Km is the concentration of substrate that gives half-maximal velocity. In general, Vmax refers to the top rate of the reaction or transport when substrate is in excess. Usually kcat/Km stands for the turnover number divided by the Michaelis constant.

The values above are taken from patent publication US20120322768A1, “COMPOUNDS, COMPOSITIONS AND METHODS FOR TREATING PROTOZOAN INFECTIONS” (QUEEN MARY & WESTFIELD COLLEGE, priority 2009, published 2012).
